Measured values from PubChem BioAssay AID1918931 (Molecular Pharmacology Branch, DTP, NCI, 2023).

Tested on: 138582-337-R-J1-PDC complex spheroid viability
Test: Anticancer human tumor 138582-337-R-J1-PDC patient-derived Merkel cell tumor cell line growth inhibition
Details: for IC50: curve of first compound; for viability, T/C: stronger effect = lower value
Method in brief: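 Multicellular complex spheroids of tumor cells with human endothelial cells (HUVEC) and mesenchymal stem cells; the LSD1 inhibitor iadademstat was combined with standard-of-care or investigational agents. Top concentration at or near clinical Cmax, half-log dilutions; final DMSO ≤0.25%.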

[1] = second compound 0.1 µM, first compound 0.00949 µM
[2] = second compound 0.1 µM, first compound 0.03 µM
[3] = second compound 0.1 µM, first compound 0.0949 µM
[4] = second compound 0.1 µM, first compound 0.3 µM
[5] = second compound 0.316 µM, first compound 0.00949 µM
[6] = second compound 0.316 µM, first compound 0.03 µM
[7] = second compound 0.316 µM, first compound 0.0949 µM
[8] = second compound 0.316 µM, first compound 0.3 µM
[9] = second compound 1 µM, first compound 0.00949 µM
[10] = second compound 1 µM, first compound 0.03 µM
[11] = second compound 1 µM, first compound 0.0949 µM
[12] = second compound 1 µM, first compound 0.3 µM
[13] = second compound 3.16 µM, first compound 0.00949 µM
[14] = second compound 3.16 µM, first compound 0.03 µM
[15] = second compound 3.16 µM, first compound 0.0949 µM
[16] = second compound 3.16 µM, first compound 0.3 µM
[17] = second compound 10 µM, first compound 0.00949 µM
[18] = second compound 10 µM, first compound 0.03 µM
[19] = second compound 10 µM, first compound 0.0949 µM
[20] = second compound 10 µM, first compound 0.3 µM
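Note: spheroids exposed to agents for 7 days.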
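Throughout, for viability, T/C: 100% = DMSO vehicle control viability.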

**Q.** What does the source list for `NS(=O)(=O)OCC1CC(n2ccc3c(NC4CCc5ccccc54)ncnc32)CC1O` (stereo not given) + NC1CC1c1ccc(-c2cccc(O)c2)cc1?
**A.** IC50 (second compound 0.1 µM): 78.9 nM; IC50 (second compound 0.316 µM): 73.7 nM; IC50 (second compound 1 µM): 72.6 nM; IC50 (second compound 3.16 µM): 100 nM; IC50 (second compound 10 µM): 141 nM; viability, T/C [1]: 83.6%; viability, T/C [2]: 63.1%; viability, T/C [3]: 48.4%; viability, T/C [4]: 34.3%; viability, T/C (second compound 0.1 µM, first compound 0.949 µM): 15.5%; viability, T/C (second compound 0.1 µM, first compound 3 µM): 15%; viability, T/C [5]: 72.6%; viability, T/C [6]: 59%; viability, T/C [7]: 48.4%; viability, T/C [8]: 34.3%; viability, T/C (second compound 0.316 µM, first compound 0.949 µM): 24.2%; viability, T/C (second compound 0.316 µM, first compound 3 µM): 15.6%; viability, T/C [9]: 82.2%; viability, T/C [10]: 56.3%; viability, T/C [11]: 50.3%; viability, T/C [12]: 35.8%; viability, T/C (second compound 1 µM, first compound 0.949 µM): 15.6%; viability, T/C (second compound 1 µM, first compound 3 µM): 14.6%; viability, T/C [13]: 86.2%; viability, T/C [14]: 63.7%; viability, T/C [15]: 51.7%; viability, T/C [16]: 40.7%; viability, T/C (second compound 3.16 µM, first compound 0.949 µM): 17.4%; viability, T/C (second compound 3.16 µM, first compound 3 µM): 14%; viability, T/C [17]: 103%; viability, T/C [18]: 68.1%; viability, T/C [19]: 65.6%; viability, T/C [20]: 37.1%; viability, T/C (second compound 10 µM, first compound 0.949 µM): 20.4%; viability, T/C (second compound 10 µM, first compound 3 µM): 16.1%

**Q.** How did the IC50 (second compound 0.1 µM) turn out when `CCc1c2c(nc3ccc(O)cc13)-c1cc3c(c(=O)n1C2)COC(=O)[C@]3(O)CC` + NC1CCC(NC2CC2c2ccccc2)CC1 was run?
**A.** 12 nM

**Q.** What about the IC50 (second compound 0.316 µM) of the same molecule?
**A.** 11.5 nM

**Q.** And the IC50 (second compound 1 µM)?
**A.** 10.1 nM

**Q.** And the IC50 (second compound 3.16 µM)?
**A.** 12.1 nM

**Q.** What about the IC50 (second compound 10 µM) of the same molecule?
**A.** 10.6 nM

**Q.** What about the viability, T/C (second compound 0.1 µM, first compound 0.000949 µM) of the same molecule?
**A.** 91.7%

**Q.** What about the viability, T/C (second compound 0.1 µM, first compound 0.003 µM) of the same molecule?
**A.** 87.9%

**Q.** What about the viability, T/C [1] of the same molecule?
**A.** 57.5%

**Q.** And the viability, T/C [2]?
**A.** 18.6%

**Q.** What about the viability, T/C [3] of the same molecule?
**A.** 0.42%

**Q.** What about the viability, T/C [4] of the same molecule?
**A.** 0.49%

**Q.** What about the viability, T/C (second compound 0.316 µM, first compound 0.000949 µM) of the same molecule?
**A.** 85.1%

**Q.** And the viability, T/C (second compound 0.316 µM, first compound 0.003 µM)?
**A.** 84.6%

**Q.** What about the viability, T/C [5] of the same molecule?
**A.** 55.1%

**Q.** What about the viability, T/C [6] of the same molecule?
**A.** 18.2%

**Q.** And the viability, T/C [7]?
**A.** 0.45%

**Q.** What about the viability, T/C [8] of the same molecule?
**A.** 0.5%

**Q.** And the viability, T/C (second compound 1 µM, first compound 0.000949 µM)?
**A.** 80.9%

**Q.** And the viability, T/C (second compound 1 µM, first compound 0.003 µM)?
**A.** 78.7%

**Q.** And the viability, T/C [9]?
**A.** 51.5%

**Q.** And the viability, T/C [10]?
**A.** 14.5%

**Q.** And the viability, T/C [11]?
**A.** 0.38%

**Q.** What about the viability, T/C [12] of the same molecule?
**A.** 0.35%

**Q.** And the viability, T/C (second compound 3.16 µM, first compound 0.000949 µM)?
**A.** 78.3%

**Q.** What about the viability, T/C (second compound 3.16 µM, first compound 0.003 µM) of the same molecule?
**A.** 75.1%

**Q.** And the viability, T/C [13]?
**A.** 58.9%

**Q.** What about the viability, T/C [14] of the same molecule?
**A.** 17.6%

**Q.** What about the viability, T/C [15] of the same molecule?
**A.** 0.39%

**Q.** And the viability, T/C [16]?
**A.** 0.54%

**Q.** And the viability, T/C (second compound 10 µM, first compound 0.000949 µM)?
**A.** 68.8%

**Q.** What about the viability, T/C (second compound 10 µM, first compound 0.003 µM) of the same molecule?
**A.** 68.9%

**Q.** And the viability, T/C [17]?
**A.** 54.2%

**Q.** And the viability, T/C [18]?
**A.** 9.4%

**Q.** What about the viability, T/C [19] of the same molecule?
**A.** 0.34%

**Q.** What about the viability, T/C [20] of the same molecule?
**A.** 0.52%
